Measured values as given in patent US20250275976A1, “Methods of Treating Neuroinflammatory Conditions” (Athira Pharma, Inc., priority 2022, published 2025).
Entries after “also recorded” stand apart in the source; their conditions may differ. Like-named read-outs stand apart in the source and are kept apart here.

What was measured:
[1] = system: Rat primary cortical neuron cultures; conditions: LPS 24 h
Procedure: To assess the neuroprotective effect of compound treatment against inflammatory insult, primary cultured cortical neurons were subjected to lipopolysaccharide (LPS) treatment for 24h along with various compound doses of compounds of Formula (I) or Compound A19. […] Rat primary cortical neuron cultures were grown at 37° C., 5% C02 in Complete Neurobasal Medium supplemented with B27/GDNF/BDNF containing 10% FBS until maturity. 25 μl of culture volume were seeded in a 384-well plate at 5,000 cells/well, and treated with 1 μM, 100 nM, 10 nM, 1 nM, or 0.1 nM of test compound for 15 minutes. Cells were then subjected to 1 μM LPS challenge for 24 hours. Luminescence measurements to assess relative levels of ATP were performed on an Envision plate reader (Perkin Elmer). Data for DMSO control were set to 100% cell viability, and each group (n=4) were averaged and presented as mean±SEM.

male CD-1 mice = experiment: T-maze spontaneous alternation, LPS-induced cognitive deficit; assay type: in vivo, mouse; conditions: for Reversal of LPS-induced cognitive deficit in T-maze (result in words): ANOVA, Fisher's PLSD, p<0.05, doses as in the value; for Spontaneous alternation (%) Mean: LPS 250 μg/kg i.p.; for Recovery (%): saline/vehicle = 100%, LPS/vehicle = 0%
Text: Encephalitis refers to inflammation of the brain that may result in brain swelling fever, headache, confusion, and seizures. The source of neuroinflammation can vary widely, including due to viral, bacterial, parasitic, or fungal infection or due to autoimmune diseases. Lipopolysaccharide (LPS) is a bacterial endotoxin that induces an intense neuroinflammatory reaction and has been associated with cognitive decline. The ability of Compound A19 to reverse cognitive decline induced by LPS in a mouse model of encephalitis was studied using a T-maze assay. In a separate substantially similar assay, Compounds 1a and 5a were also assessed.
Spontaneous and continuous alternation is the innate tendency of rodents to alternate free choices in a T-maze (T-CAT) over a series of successive runs. This sequential procedure relies on working memory and is sensitive to various pharmacological manipulations affecting memory processes. The present studies were conducted to evaluate the abilities of Compound A19, Compound 1a and Compound 5a to reverse LPS-induced cognitive deficit in the T-maze assay.
Compound A19 was dissolved in 0.9% NaCl (saline) and vortexed periodically until complete dissolution and with the pH adjusted between 7.4 and 7.8. Compound A19 was used in concentrations of 0.125, 0.1, 0.05, 0.025 and 0.0125 mg/ml which when given in a volume of 10 ml/kg result in doses of 1.25, 1, 0.5, 0.25 and 0.125 mg/kg, respectively. Compound 1a was dissolved at 160 mg/ml in 100% DMSO and vortexed until complete dissolution. Then the above stock solution was diluted in 20% PEG-400 and 78% 0.9% NaCl, whereby the stock solution comprised 2% of the final solution. Compound 1a was used in concentrations of 0.05, 0.2, 0.8, 1.6 and 3.2 mg/ml which when given in a volume of 10 ml/kg result in doses of 0.5, 2, 8, 16 and 32 mg/kg, respectively. Compound 5a was dissolved at 100 mg/ml in 100% DMSO and vortexed until complete dissolution. Then the above stock solution was diluted in 20% PEG-400 and 78% 0.9% NaCl, whereby the stock solution comprised 2% of the final solution. Compound 5a was used in concentrations of 0.125, 0.25, 0.5, 1 and 2 mg/ml which when given in a volume of 10 ml/kg result in doses of 1.25, 2.5, 5, 10 and 20 mg/kg, respectively.
Memantine was dissolved in saline. Memantine was used in concentration of 0.1 and 0.01 mg/ml, which when given in a volume of 10 ml/kg result in a dose of 1 and 0.1 mg/kg, respectively. Memantine is approved for symptomatic treatment of Alzheimer's disease was used as a reference compound.
LPS was dissolved in saline and prepared at a concentration of 0.0125 mg/ml and given intraperitoneally (i.p.) at a dosage volume of 20 ml/kg to yield a dose of 0.25 mg/kg ([…]).
Four to five weeks old male CD-1 mice (Janvier; Le Genest St Isle - France) were used for the study.
LPS was injected i.p. 2 weeks prior the T-maze trial. Compound 1a was tested at doses of 0.5, 2, 8, 16, and 32 mg/kg administered orally (p.o.) for 14 days with last treatment given 60 min before the T-maze trial. Compound 5a was tested at the doses of 1.25, 2.5, 5, 10, and 20 mg/kg administered orally (p.o.) for 14 days with last treatment given 60 min before the T-maze trial. LPS was injected i.p. 2 weeks prior the T-maze trial.
The T-maze apparatus was made of gray Plexiglas with a main stem (55 cm long×10 cm wide×20 cm high) and two arms (30 cm long×10 cm wide×20 cm high) positioned at a 90-degree angle relative to the main stem. A start box (15 cm long×10 cm wide) was separated from the main stem by a guillotine door. Horizontal doors were also provided to close specific arms during the force choice alternation task.
The experimental protocol consisted of a single session, which started with one “forced-choice” trial, followed by 14 “free-choice” trials. In the “forced-choice” trial, the animal was confined 5 seconds in the start arm and was then released while either the left or right goal arm was blocked by a horizontal door. […]

Prp-TDP43^A315T mice = assay type: in vivo
Procedure: Extranuclear accumulation of TDP-43 protein is a pathological hallmark of a number of neurological diseases. […] Male Prp-TDP43^A315T mice (N=10 mice per group) at 3 weeks of age were administered daily treatments of test compounds. Compound A19 was administered via subcutaneous injection, and Compound 5a and Compound 6a were administered via oral gavage. After 2 months of treatment, plasma samples were collected for cytokine quantification. […] Plasma IL-6 and TNF-α cytokine expression levels were determined using the ELISA method. The submandibular vein was punctured with a lancet and a blood drop was collected directly on a microtube containing EDTA as anticoagulant. Samples were centrifuged for 15 minutes at 1000×g at 4° C. within 20 minutes of collection. 20 μl of plasma supernatant was stored at −20° C. before ELISA analysis.
Plasma was diluted at 1:10 in sterile PBS, and IL-6 and TNF-α quantification was performed in duplicate for each animal using 10 μl of sample per well in 96-well plates using the ELISA method (IL-6: Signa-Aldrich Cat #RAB0308, TNF-α: Sigma-Aldrich Cat #RAB0477). Statistical analysis was carried out by 2-way ANOVA with Dunnett's multiple comparisons post-test with compound-treated samples compared to vehicle-treated samples.

[2] = 2 months of treatment, doses as in the value

## CCC(C)CN1CC2N(C(=O)c3ccc(C(F)(F)F)cc3)CCC(=O)N2[C@@H](C)C1=O (some centres unmarked) [Compound 1a]
[1]; dose 0.1 nM
  Significance of neuroprotection vs 1 uM LPS: +++ (+++ indicates p<0.001)
[1]; dose 1 nM
  Significance of neuroprotection vs 1 uM LPS: +++ (+++ indicates p<0.001)
[1]; dose 10 nM
  Significance of neuroprotection vs 1 uM LPS: +++ (+++ indicates p<0.001)
[1]; dose 100 nM
  Significance of neuroprotection vs 1 uM LPS: +++ (+++ indicates p<0.001)
[1]; dose 1 μM
  Significance of neuroprotection vs 1 uM LPS: +++ (+++ indicates p<0.001)
Male CD-1 mice
  Reversal of LPS-induced cognitive deficit in T-maze (result in words): significant reversal of LPS-induced cognitive deficits at 2 mg/kg; also recorded: trending at 8 and 32 mg/kg; also recorded: reversed the LPS-induced cognitive disruption
Male CD-1 mice; Compound 1a 0.5 mg/kg p.o. daily 14 days
  Spontaneous alternation (%) Mean: 49%
Male CD-1 mice; Compound 1a 0.5 mg/kg p.o. daily 14 days, listed as Cmpd 1a
  Spontaneous alternation (%) Mean: 48.6%
Male CD-1 mice; Compound 1a 0.5 mg/kg p.o.
  Recovery (%): 17%
Male CD-1 mice; Compound 1a 2 mg/kg p.o. daily 14 days
  Spontaneous alternation (%) Mean: 59%
Male CD-1 mice; Compound 1a 2 mg/kg p.o. daily 14 days, listed as Cmpd 1a
  Spontaneous alternation (%) Mean: 58.6%
Male CD-1 mice; Compound 1a 2 mg/kg p.o.
  Recovery (%): 56%
Male CD-1 mice; Compound 1a 8 mg/kg p.o. daily 14 days
  Spontaneous alternation (%) Mean: 56%
Male CD-1 mice; Compound 1a 8 mg/kg p.o. daily 14 days, listed as Cmpd 1a
  Spontaneous alternation (%) Mean: 56.4%
Male CD-1 mice; Compound 1a 8 mg/kg p.o.
  Recovery (%): 47%
Male CD-1 mice; Compound 1a 16 mg/kg p.o. daily 14 days
  Spontaneous alternation (%) Mean: 51%
Male CD-1 mice; Compound 1a 16 mg/kg p.o. daily 14 days, listed as Cmpd 1a
  Spontaneous alternation (%) Mean: 51.4%
Male CD-1 mice; Compound 1a 16 mg/kg p.o.
  Recovery (%): 28%
Male CD-1 mice; Compound 1a 32 mg/kg p.o. daily 14 days
  Spontaneous alternation (%) Mean: 56%
Male CD-1 mice; Compound 1a 32 mg/kg p.o. daily 14 days, listed as Cmpd 1a
  Spontaneous alternation (%) Mean: 55.7%
Male CD-1 mice; Compound 1a 32 mg/kg p.o.
  Recovery (%): 44%

## CCC(C)CN1CC2N(Cc3ccc(C(F)(F)F)cc3)CCC(=O)N2[C@@H](C)C1=O (some centres unmarked) [Compound 5a]
Prp-TDP43^A315T mice; 2 mg/kg PO daily
  Significant decrease in plasma cytokine expression after 2 months of treatment: IL-6: ++++ (++++ = p < 0.0001)
  Significant decrease in plasma cytokine expression after 2 months of treatment: TNF-α: ++++ (++++ = p < 0.0001)
Prp-TDP43^A315T mice; 10 mg/kg PO daily
  Significant decrease in plasma cytokine expression after 2 months of treatment: IL-6: ++++ (++++ = p < 0.0001)
  Significant decrease in plasma cytokine expression after 2 months of treatment: TNF-α: ++++ (++++ = p < 0.0001)
Prp-TDP43^A315T mice; 20 mg/kg PO daily
  Significant decrease in plasma cytokine expression after 2 months of treatment: IL-6: ++++ (++++ = p < 0.0001)
  Significant decrease in plasma cytokine expression after 2 months of treatment: TNF-α: ++++ (++++ = p < 0.0001)
Prp-TDP43^A315T mice; [2]
  Plasma IL-6 expression (result in words): significantly reduced both cytokine levels at doses of 2, 10, and 20 mg/kg
  Plasma TNF-α expression (result in words): significantly reduced both cytokine levels at doses of 2, 10, and 20 mg/kg
[1]; dose 0.1 nM
  Significance of neuroprotection vs 1 uM LPS: +++ (+++ indicates p<0.001)
[1]; dose 1 nM
  Significance of neuroprotection vs 1 uM LPS: +++ (+++ indicates p<0.001)
[1]; dose 10 nM
  Significance of neuroprotection vs 1 uM LPS: +++ (+++ indicates p<0.001)
[1]; dose 100 nM
  Significance of neuroprotection vs 1 uM LPS: +++ (+++ indicates p<0.001)
[1]; dose 1 μM
  Significance of neuroprotection vs 1 uM LPS: +++ (+++ indicates p<0.001)
Male CD-1 mice
  Reversal of LPS-induced cognitive deficit in T-maze (result in words): significant reversal of LPS-induced cognitive deficits at all doses; also recorded: reversed the LPS-induced cognitive disruption
Male CD-1 mice; Compound 5a 1.25 mg/kg p.o. daily 14 days
  Spontaneous alternation (%) Mean: 59%
Male CD-1 mice; Compound 5a 1.25 mg/kg p.o. daily 14 days, listed as Cmpd 5a
  Spontaneous alternation (%) Mean: 59.3%
Male CD-1 mice; Compound 5a 1.25 mg/kg p.o.
  Recovery (%): 58%
Male CD-1 mice; Compound 5a 2.5 mg/kg p.o. daily 14 days
  Spontaneous alternation (%) Mean: 58%
Male CD-1 mice; Compound 5a 2.5 mg/kg p.o. daily 14 days, listed as Cmpd 5a
  Spontaneous alternation (%) Mean: 57.9%
Male CD-1 mice; Compound 5a 2.5 mg/kg p.o.
  Recovery (%): 53%
Male CD-1 mice; Compound 5a 5 mg/kg p.o. daily 14 days
  Spontaneous alternation (%) Mean: 61%
Male CD-1 mice; Compound 5a 5 mg/kg p.o. daily 14 days, listed as Cmpd 5a
  Spontaneous alternation (%) Mean: 60.7%
Male CD-1 mice; Compound 5a 5 mg/kg p.o.
  Recovery (%): 64%
Male CD-1 mice; Compound 5a 10 mg/kg p.o. daily 14 days
  Spontaneous alternation (%) Mean: 58%
Male CD-1 mice; Compound 5a 10 mg/kg p.o. daily 14 days, listed as Cmpd 5a
  Spontaneous alternation (%) Mean: 57.9%
Male CD-1 mice; Compound 5a 10 mg/kg p.o.
  Recovery (%): 53%
Male CD-1 mice; Compound 5a 20 mg/kg p.o. daily 14 days
  Spontaneous alternation (%) Mean: 60%
Male CD-1 mice; Compound 5a 20 mg/kg p.o. daily 14 days, listed as Cmpd 5a
  Spontaneous alternation (%) Mean: 60.0%
Male CD-1 mice; Compound 5a 20 mg/kg p.o.
  Recovery (%): 61%
